In patent US8927563B2, “Kinase inhibitor” (Respivert Limited, priority 2013, dated 2015):
Read-outs that look alike come from different tables or passages of the source.

Assays:
[1] = tested on: rat, Cynomolgus macaque or human hepatocytes; assay: Analysis of metabolites in hepatocyte incubations; format: in vitro ADME; conditions: 10 μM, 0, 60 and 90 minutes
Method: Studies were conducted by BioFocus (Saffron Walden, UK) to determine the metabolic fate of Compound I following incubation with rat, Cynomolgus macaque or human hepatocytes.
Separate incubations (n=3) of Compound I (10 μM initial concentration) or DMSO control, were performed with cryopreserved hepatocytes from each species (0.5 million cell/mL) at 37° C. for 0, 60 and 90 minutes before termination of reactions and compound extraction with acetonitrile. Sample replicates were pooled prior to analysis.
Potential metabolites were identified using time-of-flight (TOF) and triple quadruple (TQ) mass spectrometers.

[2] = biological target: p38 MAPKα (Homo sapiens (Human), UniProt Q16539); assay: KINOMEscan dissociation constant, p38 MAPKα; format: binding
Chain of p38 MAPKα (Q16539 whole entry, looked up): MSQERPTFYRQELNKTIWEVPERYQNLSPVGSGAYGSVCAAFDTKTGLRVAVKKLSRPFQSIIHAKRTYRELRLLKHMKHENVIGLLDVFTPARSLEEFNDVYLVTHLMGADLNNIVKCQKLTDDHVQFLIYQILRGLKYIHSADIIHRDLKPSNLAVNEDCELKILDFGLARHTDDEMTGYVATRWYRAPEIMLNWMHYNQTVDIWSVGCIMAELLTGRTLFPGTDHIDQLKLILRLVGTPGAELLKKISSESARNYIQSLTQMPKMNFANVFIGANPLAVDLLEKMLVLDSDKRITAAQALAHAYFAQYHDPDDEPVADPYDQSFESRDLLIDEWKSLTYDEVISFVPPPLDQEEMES
Method: (§1) Kinase enzyme binding activities of compounds disclosed herein may be determined using a proprietary assay which measures active site-directed competition binding to an immobilized ligand (Fabian, M. A. et al., Nature Biotechnol., 2005, 23:329-336). These assays may be conducted by DiscoverX (formerly Ambit; San Diego, Calif.). The percentage inhibition produced by incubation with a test compound may be calculated relative to the non-inhibited control.

[3] = biological target: B-Raf (V600E) (Homo sapiens (Human), UniProt P15056, V600E); assay: KINOMEscan binding of B-Raf (V600E) to standard ligand
Chain of B-Raf (V600E) (P15056 whole entry V600E): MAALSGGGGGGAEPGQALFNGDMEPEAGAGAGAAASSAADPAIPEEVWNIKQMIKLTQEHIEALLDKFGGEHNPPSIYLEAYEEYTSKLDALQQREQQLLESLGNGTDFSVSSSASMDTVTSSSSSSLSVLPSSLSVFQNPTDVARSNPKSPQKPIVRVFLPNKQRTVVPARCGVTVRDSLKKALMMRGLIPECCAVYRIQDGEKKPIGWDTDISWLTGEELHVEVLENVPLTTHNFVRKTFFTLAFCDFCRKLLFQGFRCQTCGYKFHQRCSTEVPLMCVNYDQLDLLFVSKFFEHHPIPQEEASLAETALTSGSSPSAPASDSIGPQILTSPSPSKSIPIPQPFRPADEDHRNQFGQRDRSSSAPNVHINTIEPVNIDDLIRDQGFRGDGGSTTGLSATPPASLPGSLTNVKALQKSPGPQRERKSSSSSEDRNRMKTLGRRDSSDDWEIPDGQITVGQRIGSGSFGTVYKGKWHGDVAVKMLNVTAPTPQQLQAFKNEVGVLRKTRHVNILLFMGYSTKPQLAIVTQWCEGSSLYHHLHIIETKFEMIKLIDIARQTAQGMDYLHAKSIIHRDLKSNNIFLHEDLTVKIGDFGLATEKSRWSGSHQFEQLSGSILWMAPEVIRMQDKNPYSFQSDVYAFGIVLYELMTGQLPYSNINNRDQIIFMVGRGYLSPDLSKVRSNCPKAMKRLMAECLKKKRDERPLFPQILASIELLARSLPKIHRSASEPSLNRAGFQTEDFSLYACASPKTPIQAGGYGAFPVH
Method: as §1

[4] = Pharmacokinetics after intravenous administration to rats; format: in vivo; conditions: intravenous 0.25 mg/kg
Method: Studies were conducted by Sai Life Sciences (Hinjewadi, Pune, India) to investigate the plasma pharmacokinetics and total colon tissue distribution of Compound I. In particular, pharmacokinetic studies were carried out in: • male C57BL/6 mice, following a single oral administration; and • male Wistar rats following a single intravenous or oral administration.

[5] = biological target: Syk (Homo sapiens (Human), UniProt P43405); assay: Syk enzyme inhibition, Z-LYTE FRET; format: biochemical
Method: (§2) The enzyme inhibitory activities of compounds disclosed herein are determined by FRET using synthetic peptides labelled with both donor and acceptor fluorophores (Z-LYTE, Invitrogen Ltd., Paisley, UK).
(§3) The inhibitory activities of the compound of the invention against c-Src and Syk enzymes (Invitrogen) are evaluated in a similar fashion to that described hereinabove. The relevant enzyme (3000 ng/mL or 2000 ng/mL respectively, 2.5 μL) is incubated with the test compound (either 1 μg/mL, 0.1 μg/mL, 0.01 μg/mL, or 0.001 μg/mL, 2.5 μL each) for 2 hr at RT. The FRET peptides (8 μM, 2.5 μL) and appropriate ATP solutions (2.5 μL, 800 μM for c-Src, and 60 μM ATP for Syk) are then added to the enzymes/compound mixtures and the mixture incubated for 1 hr. Development reagent (protease, 5 μL) is added for 1 hr prior to detection in a fluorescence microplate reader (Varioskan® Flash, ThermoFisher Scientific).
(§4) In all cases, the site-specific protease cleaves non-phosphorylated peptide only and eliminates the FRET signal. Phosphorylation levels of each reaction are calculated using the ratio of coumarin emission (donor) over fluorescein emission (acceptor), for which high ratios indicate high phosphorylation and low ratios indicate low phosphorylation levels.

[6] = tested on: non-mutant kinases; assay: KinomeScan selectivity scores; format: binding
Method: as §1

[7] = biological target: CYP3A4 (Homo sapiens (Human), UniProt P08684); assay: CYP3A4 inhibition with and without preincubation; format: in vitro ADME; conditions: for inhibition at 15 µM: human, read-out: 15 μM % Inh
Chain of CYP3A4 (P08684 whole entry): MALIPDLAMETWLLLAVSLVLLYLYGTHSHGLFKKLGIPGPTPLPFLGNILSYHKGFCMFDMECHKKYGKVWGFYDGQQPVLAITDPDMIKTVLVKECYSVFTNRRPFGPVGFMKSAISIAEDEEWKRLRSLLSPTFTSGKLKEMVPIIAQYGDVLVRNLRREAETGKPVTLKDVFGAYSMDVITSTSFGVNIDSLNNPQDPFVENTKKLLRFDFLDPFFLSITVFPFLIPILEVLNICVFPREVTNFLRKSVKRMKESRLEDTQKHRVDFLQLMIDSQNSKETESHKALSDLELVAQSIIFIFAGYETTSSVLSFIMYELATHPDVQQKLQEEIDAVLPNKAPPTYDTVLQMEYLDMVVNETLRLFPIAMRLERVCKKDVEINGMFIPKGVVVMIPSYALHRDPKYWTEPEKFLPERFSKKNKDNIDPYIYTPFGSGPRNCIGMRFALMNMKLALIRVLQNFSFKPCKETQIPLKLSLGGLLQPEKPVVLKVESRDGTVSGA
Method: (§5) Assessment of certain in vitro ADME (absorption, distribution, metabolism, and excretion) parameters for Compound I was conducted by BioFocus (Saffron Walden, UK). The results reveal that Compound I is cleared rapidly by human hepatocytes and that it has a reduced liability for time-dependent cytochrome P450 inhibition.

[8] = Hydrolytic stability study; format: physicochemical; conditions: buffer, 1 mg/mL
Method: Chemical stability of Compound I was assessed in a mixture of DMSO and water (3:1) at a test compound concentration of 1 mg/mL
Sample Preparation • A 1.0 mg sample of test compound was dissolved in 750 μL of DMSO. Water (250 μL) was added slowly, ensuring no precipitation occurred.
Recording Stability • A 50 μL aliquot of the test solution was removed and analysed in duplicate by 5 μL HPLC injections. The peak area for the test compound was recorded following manual integration of the corresponding UV trace. • The test solution was heated to 60° C., with stirring, and 50 μL aliquots removed for HPLC analysis at 5 and 24 h timepoints.

[9] = biological target: CYP2C9 (Homo sapiens (Human), UniProt P11712); assay: CYP2C9 inhibition with and without preincubation; format: in vitro ADME; conditions: for inhibition at 15 µM: human, read-out: 15 μM % Inh
Chain of CYP2C9 (P11712 whole entry): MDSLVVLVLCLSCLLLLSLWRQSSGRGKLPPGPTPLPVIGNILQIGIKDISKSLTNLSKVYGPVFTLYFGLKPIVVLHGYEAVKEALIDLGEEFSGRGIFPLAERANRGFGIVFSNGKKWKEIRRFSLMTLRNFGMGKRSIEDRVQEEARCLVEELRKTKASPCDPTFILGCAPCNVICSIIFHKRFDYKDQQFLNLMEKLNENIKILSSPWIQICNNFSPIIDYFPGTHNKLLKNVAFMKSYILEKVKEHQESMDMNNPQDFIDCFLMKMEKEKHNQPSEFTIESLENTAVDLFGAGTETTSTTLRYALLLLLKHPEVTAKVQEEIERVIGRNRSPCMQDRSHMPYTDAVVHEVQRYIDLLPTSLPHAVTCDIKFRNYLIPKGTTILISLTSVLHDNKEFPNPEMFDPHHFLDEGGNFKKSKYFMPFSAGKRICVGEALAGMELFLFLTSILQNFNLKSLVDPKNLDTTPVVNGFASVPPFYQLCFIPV
Method: as §5

[10] = biological target: c-Src (Homo sapiens (Human), UniProt P12931); assay: c-Src enzyme inhibition, Z-LYTE FRET; format: biochemical
Chain of c-Src (P12931 whole entry, looked up): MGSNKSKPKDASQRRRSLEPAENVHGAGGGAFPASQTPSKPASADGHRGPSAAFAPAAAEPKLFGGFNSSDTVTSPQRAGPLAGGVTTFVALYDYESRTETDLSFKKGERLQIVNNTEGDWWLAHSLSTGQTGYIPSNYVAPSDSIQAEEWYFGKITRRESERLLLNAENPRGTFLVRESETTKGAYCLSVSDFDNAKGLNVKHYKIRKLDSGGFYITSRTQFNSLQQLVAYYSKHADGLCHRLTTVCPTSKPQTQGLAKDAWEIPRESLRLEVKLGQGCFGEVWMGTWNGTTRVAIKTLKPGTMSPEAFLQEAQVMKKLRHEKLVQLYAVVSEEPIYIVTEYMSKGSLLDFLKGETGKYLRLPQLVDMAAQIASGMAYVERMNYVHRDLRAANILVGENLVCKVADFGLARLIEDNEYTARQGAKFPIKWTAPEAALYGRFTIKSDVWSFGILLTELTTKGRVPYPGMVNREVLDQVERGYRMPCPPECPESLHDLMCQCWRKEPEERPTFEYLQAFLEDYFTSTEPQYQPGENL
Method: as §2, §3, §4

[11] = tested on: adoptive transfer colitis; assay: Adoptive transfer mouse model; format: in vivo, mice
Method: On Study day 0, female Balb/C mice are terminated and spleens obtained for CD45RB^high cell isolation (Using SCID IBD cell Separation protocol). Approximately 4×10^5 cells/mL CD45RB^high cells are then injected intraperitoneally (100 μL/mouse) into female SCID animals. On study day 14, mice are weighed and randomized into treatment groups based on body weight. On Day 14, the compound is administered BID, via oral gavage, in a vehicle comprising a defined mixture of corn oil (32.5%), transcutol (20%), maisine (12.5%) and cremophor ELP (35%) at the dose levels outlined below in Tables 6a and 6b and a dose volume of 5 mL/kg. Treatment continues until study day 42, at which point the animals are necropsied 4 hours after the morning administration. The colon length and weight are recorded and used as a secondary endpoint in the study as a measurement of colon oedema. The colon is then divided into six cross-sections, four of which are used for histopathology scoring (primary endpoint) and two are homogenised for cytokine analysis. Data shown is the % inhibition of the induction window between naïve animals and vehicle animals, where higher inhibition implies closer to the non-diseased, naïve, phenotype.

C#Cc1cc(Nc2nccc(Oc3ccc(NC(=O)Nc4cc(C(C)(C)C)cc(NS(C)(=O)=O)c4OC)c4ccccc34)n2)cc(C(=O)NCCOCCOCCOC)c1 [Compound I, 3-((4-((4-(3-(5-(tert-Butyl)-2-methoxy-3-(methylsulfonamido)phenyl)ureido)naphthalen-1-yl)oxy)pyrimidin-2-yl)amino)-5-ethynyl-N-(2-(2-(2-methoxyethoxy)ethoxy)ethyl)benzamide]
number of metabolites formed in hepatocytes [1]: 9 | products connected to metabolism at the naphthalene moiety [1]: no products were noted | Kd [2]: 9 nM | effect on binding of B-Raf (V600E) to its standard ligand [3]: did not have any significant effect | CI [4]: 4.8 mL/min/kg | AUC(0-inf) ([4]; male, Wistar, rat, plasma): 871 ng·h/mL | AUC(0-t) ([4]; male, Wistar, rat, plasma): 869 ng·h/mL | C0 ([4]; male, Wistar, rat, plasma): 6540 ng/mL | half-life ([4]; male, Wistar, rat, plasma): 6 min | Vd ([4]; male, Wistar, rat, plasma, read-out: Vss): 0.03 L/kg | IC50 [5]: 591 nM | number of individual kinase hits, S(1) ([6]; 50 nM, % Ctrl <1): 0 | KinomeScan Selectivity Score S(10) ([6]; 50 nM, % Ctrl <10): 0.023 | number of individual kinase hits, S(10) ([6]; 50 nM, % Ctrl <10): 9 | KinomeScan Selectivity Score S(35) ([6]; 50 nM, % Ctrl <35): 0.068 | number of individual kinase hits, S(35) ([6]; 50 nM, % Ctrl <35): 27 | KinomeScan Selectivity Score S(1) ([6]; 500 nM, % Ctrl <1): 0.038 | number of individual kinase hits, S(1) ([6]; 500 nM, % Ctrl <1): 15 | number of individual kinase hits, S(10) ([6]; 500 nM, % Ctrl <10): 51 | number of individual kinase hits, S(35) ([6]; 500 nM, % Ctrl <35): 78 | IC50 ([7]; CYP3A4, 0 min preincubation): > 15000 nM | IC50 ([7]; CYP3A4, 30 min preincubation): 7800 nM | inhibition at 15 µM ([7]; CYP3A4, 0 min preincubation): 31% | inhibition at 15 µM ([7]; CYP3A4, 30 min preincubation): 54% | % Parent Remaining ([8]; 0 h): 100% | % Parent Remaining ([8]; 5 h): 100% | % Parent Remaining ([8]; 24 h): 100% | IC50 ([9]; CYP2C9, 0 min preincubation): > 15000 nM | IC50 ([9]; CYP2C9, 30 min preincubation): > 15000 nM | inhibition at 15 µM ([9]; CYP2C9, 0 min preincubation): 21% | inhibition at 15 µM ([9]; CYP2C9, 30 min preincubation): 37% | IC50 [10]: 24 nM | IFNγ level in colon tissue ([11]; 3 mg/kg): 10.8 ± 3.3 pg/mL | IL-8 level in colon tissue ([11]; 3 mg/kg): 70.8 ± 22.8 pg/mL | Colon weight:length ([11]; 3 mg/kg BID oral): 0.024 ± 0.003 | % Inhibition of induction window between naïve and vehicle animals ([11]; 3 mg/kg BID oral, colon weight:length): 90% | Colon weight:length ([11]; additional study, 0.03 mg/kg): 0.033 ± 0.002 | Colon weight:length ([11]; additional study, 0.3 mg/kg): 0.041 ± 0.005 | Colon weight:length ([11]; additional study, 3 mg/kg): 0.034 ± 0.003
